Experimental data: patent publication US20190350895A1, “PHOTOCHROMATIC MODULATION WITH FLUORESCEIN FOR THE TREATMENT OF PHOTO-OCULODYNIA AND BLEPHAROSPASM” (Baylor College of Medicine, priority 2016, published 2019)

Experiments:
[1] = tested on: patients with essential blepharospasm; assay: Blink rate before and immediately after placement of a scleral contact lens with fluorescein dye in the fluid reservoir; assay type: in vivo, human; conditions: immediately after placement of scleral lens with saline mixed with fluorescein dye
Procedure: (§1) All patients in the study have an established diagnosis of essential blepharospasm currently managed with botulinum toxin injections. Prior to treatment with the fluorescein dye, patients are evaluated for their blink rate as determined by the number of blinks per minute. Patients are also evaluated using the Jankovic rating scale which has 2 components: 1. The severity of the eyelid spasms are rated from 0-4 (0=no spasms, 4=severe incapacitating spasms) and, 2. The frequency of spasms are rated from 0-4 (0=no spasms, 4=persistent eye closure). The sum of the severity score and the frequency score is then computed. Patients are then fitted with a scleral contact lens with normal saline solution mixed with fluorescein dye placed in the fluid reservoir. The blink rate and JRS sum score are then assessed immediately after placement of the lens.

[2] = tested on: patients with essential blepharospasm; assay: Jankovic rating scale (JRS) sum score, severity plus frequency of eyelid spasms, before and immediately after lens placement; assay type: in vivo, human; conditions: sum of severity (0-4) and frequency (0-4) scores immediately after lens placement
Procedure: as §1

`O=C1OC2(c3ccc(O)cc3Oc3cc(O)ccc32)c2ccccc21` [fluorescein] showed a Post blink-rate ([1]; Patient 1, pre blink-rate 80) of 10 blinks per minute, a Post blink-rate ([1]; Patient 2, pre blink-rate 50) of 20 blinks per minute and a Post blink-rate ([1]; Patient 3, pre blink-rate 60) of 40 blinks per minute. The Post blink-rate ([1]; Patient 4, pre blink-rate 70) was 35 blinks per minute, the Post blink-rate ([1]; Patient 5, pre blink-rate 70) was 49 blinks per minute and the “Post JRS” value ([2]; Patient 1, pre JRS 7) was 1. For the same compound, the “Post JRS” value ([2]; Patient 2, pre JRS 6) was 3, the “Post JRS” value ([2]; Patient 3, pre JRS 6) was 4 and the “Post JRS” value ([2]; Patient 4, pre JRS 7) was 4. The “Post JRS” value ([2]; Patient 5, pre JRS 7) was 3.
